Read-outs that look alike come from different tables or passages of the source.
What was measured:
recombinant human cIAP-1 = target: T1, recombinant human cIAP-1 (Homo sapiens, UniProt Q13490); assay: Fluorescence polarization competition binding assay, cIAP-1; details: c-IAP-1, 3 h
T1 construct: purchased R&D Systems 818-IA
Description: Homogeneous, Fluorescence Polarization, Competition Binding Assay Protocol for Affinity Assessment of Compound Binding to XIAP, cIAP-1 and ML-IAPβ BIR3 Domains
1× stocks of recombinant human XIAP; BIR3 domain (895-XB), recombinant human cIAP-1 (818-IA) or recombinant human ML-IAPβ (818-IA) from R&D Systems and Fluorescence Polarization (FP) assay tracer (Atto-647 tagged IAP inhibitor probe compound) were prepared in assay buffer consisting of 25 mM Tris-HCL, pH 7.5 (Sigma), 10 mM […] (Sigma), 1 mM DTT (Fluka) and 0.005% TritonX-100 (Pierce). While IAP protein and tracer equilibrated at ambient temp in the dark (30-60 min), 100× stocks of test compound were prepared in 50% DMSO:H2O, serially diluted and spotted (0.5 µL/well) in duplicate wells of a 384-well, flat bottom, polypropylene, black assay plate (Greiner #781209). […] Competition binding between test compounds and assay tracer was initiated by the addition of 50 µL/well of pre-equilibrated IAP protein and assay tracer. Displacement of the assay tracer was measured in a Synergy plate reader from BioTek (Winooski, Vt.) at λex620/λem680 through a 660 nm half-sized dicroich mirror and S/P polarizing filters every 30 min for 3 hr. (See Huang, X., Journal of Biomolecular Screening 8, 2003). The resulting compound dose response data were fit to a one-site binding Ki model in GraphPad Prism from GraphPad Software (San Diego, Calif.).

p120γ (PI3Kγ) = target: T2, p120γ (PI3Kγ) (Homo sapiens, UniProt P48736); assay: HTRF assay, p120γ; assay type: biochemical
T2 construct: purchased BPS Bioscience 40625
Source text: The protocol below describes an end-point, competition-binding HTRF assay used to measure inherent potency of test compounds against active p110α/p85α, p110β/p85α, p120γ enzymes. The mechanics of the assay platform are best described by the vendor (Millipore, Billerica, Mass.) on their website at the following URL: http://www.millipore.com/coa/tech1/74jt4z.
Briefly, Stop solution (Stop A, #33-007 and Stop B, #33-009; 3:1 ratio) and Detection Mix (DMC, #33-015 with DMA, #33-011 and DMB, #33-013; 18:1:1 ratio) were prepared as recommended by the manufacturer ˜2 hrs prior to use. Additionally, 1× reaction buffer (4× buffer stock #33-003), a 1.4× stock of enzyme from BPS Bioscience (San Diego, Ca) or Millipore (Billerica, Mass.) with di-C8-PIP2 lipid substrate (#33-005), and a 4×ATP solution (#A7699) Sigma/Aldrich (St. Louis, Mo.) were prepared in 1×reaction buffer. 15 μL of enzyme and lipid substrate mix were pre-incubated in a Corning (#3573) 384-well, black, non-treated microtiter plate (Corning, N.Y.) for 30 min at 25° C. with a 0.5 μL volume of 50% DMSO and serially diluted compounds prepared in 50%-75% DMSO. Lipid kinase reactions were started with the addition of 5 μL of ATP solution, mixed for 15 sec on a rotary plate shaker and incubated for 15-30 minutes at 25° C. Next, reactions were stopped with a 5 μL addition of Stop solution followed by a 5 μL volume of Detection Mix. Stopped reactions were equilibrated for 1 and 18 hrs at room temperature and then read in a Synergy4 plate reader from BioTek (Winooski, Vt.) at λex330-80/λem620-35 and λem665-7.5. At the conclusion of each assay, the HTRF ratio from fluorescence emission values for each well was calculated and % Inhibition determined from averaged controls wells. % Inhibition values for each compound re then plotted against inhibitor concentration to estimate IC50 from log [Inhibitor] vs Response, Variable Slope model in GraphPad Prism from GraphPad Software (San Diego, Calif.).
Reagents Used in Optimized Protocol: • [p120γ]=1-4 nM, [ATP]=50 μM, [di-C8-PIP2]=10 μM • (40625; BPS Bioscience)

T1 sequence (Q13490 whole entry): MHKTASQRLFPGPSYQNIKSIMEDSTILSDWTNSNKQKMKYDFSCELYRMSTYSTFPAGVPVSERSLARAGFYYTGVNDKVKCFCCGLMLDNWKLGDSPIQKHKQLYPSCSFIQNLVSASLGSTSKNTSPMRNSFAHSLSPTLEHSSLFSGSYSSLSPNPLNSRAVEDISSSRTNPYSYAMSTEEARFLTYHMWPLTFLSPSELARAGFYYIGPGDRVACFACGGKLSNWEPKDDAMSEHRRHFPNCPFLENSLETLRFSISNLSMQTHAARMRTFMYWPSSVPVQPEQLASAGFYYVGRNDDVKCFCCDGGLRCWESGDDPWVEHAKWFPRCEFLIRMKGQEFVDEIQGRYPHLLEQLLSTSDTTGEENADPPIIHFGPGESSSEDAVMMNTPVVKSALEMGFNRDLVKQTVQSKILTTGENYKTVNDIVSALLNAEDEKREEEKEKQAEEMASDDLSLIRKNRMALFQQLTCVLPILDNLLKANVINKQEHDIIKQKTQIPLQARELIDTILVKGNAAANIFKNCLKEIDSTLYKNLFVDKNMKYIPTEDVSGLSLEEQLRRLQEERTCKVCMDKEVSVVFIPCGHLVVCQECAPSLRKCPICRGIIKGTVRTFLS
T2 sequence (P48736 whole entry): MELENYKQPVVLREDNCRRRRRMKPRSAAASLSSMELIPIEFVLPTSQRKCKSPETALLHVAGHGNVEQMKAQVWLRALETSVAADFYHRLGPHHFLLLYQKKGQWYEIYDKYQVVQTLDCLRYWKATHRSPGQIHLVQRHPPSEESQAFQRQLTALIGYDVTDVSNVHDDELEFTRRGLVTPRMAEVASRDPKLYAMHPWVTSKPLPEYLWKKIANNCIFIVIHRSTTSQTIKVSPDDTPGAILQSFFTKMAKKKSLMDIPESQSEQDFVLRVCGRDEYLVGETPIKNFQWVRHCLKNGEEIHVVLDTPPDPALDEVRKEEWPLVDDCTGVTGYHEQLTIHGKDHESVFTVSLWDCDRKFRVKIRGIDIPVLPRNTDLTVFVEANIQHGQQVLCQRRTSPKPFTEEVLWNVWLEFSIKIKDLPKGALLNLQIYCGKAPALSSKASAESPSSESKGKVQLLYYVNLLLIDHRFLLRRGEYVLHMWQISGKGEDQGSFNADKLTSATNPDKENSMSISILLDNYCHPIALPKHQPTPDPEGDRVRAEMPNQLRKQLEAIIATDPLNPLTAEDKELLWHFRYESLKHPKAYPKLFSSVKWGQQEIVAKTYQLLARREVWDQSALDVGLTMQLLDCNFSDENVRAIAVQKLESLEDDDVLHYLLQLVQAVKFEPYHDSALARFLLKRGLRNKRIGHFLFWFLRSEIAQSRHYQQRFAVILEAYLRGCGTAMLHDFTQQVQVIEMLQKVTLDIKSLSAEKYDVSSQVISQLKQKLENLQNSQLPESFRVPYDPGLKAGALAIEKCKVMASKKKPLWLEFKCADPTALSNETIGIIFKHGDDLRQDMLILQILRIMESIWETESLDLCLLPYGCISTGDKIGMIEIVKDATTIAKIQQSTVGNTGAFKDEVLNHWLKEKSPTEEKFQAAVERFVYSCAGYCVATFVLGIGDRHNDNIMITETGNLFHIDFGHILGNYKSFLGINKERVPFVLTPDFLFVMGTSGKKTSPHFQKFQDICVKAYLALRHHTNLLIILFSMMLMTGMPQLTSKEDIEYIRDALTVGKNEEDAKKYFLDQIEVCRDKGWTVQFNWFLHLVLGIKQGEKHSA

Compound	Ki (recombinant human cIAP-1)	further results
CN[C@@H](C)C(=O)N[C@H]1CCCC[C@H]2CC[C@@H](C(=O)NCc3cccc(NC(=O)C4(C(C)=O)CC4)c3)N2C1=O [VII-34]	100 to 1000 nM	–
Cc1ccc([N+](=O)[O-])cc1S(=O)(=O)N(C)/N=C/c1cnc2ccc(Br)cn12 [PIK75, reference compound]	–	IC50 (p120γ (PI3Kγ); p120γ, read-out: Reference Inhibitor IC50): 55 nM
C=CC(=O)NCc1cccc(CNC(=O)[C@@H]2CC[C@@H]3CCCC[C@H](NC(=O)[C@H](C)NC)C(=O)N32)c1 [VII-18]	100 to 1000 nM	–
CN[C@@H](C)C(=O)N[C@H]1CCCC[C@H]2CC[C@@H](C(=O)NCc3cccc(C(=O)C=C(C)C)c3)N2C1=O [VII-19]	10 to 100 nM	–
CN[C@@H](C)C(=O)N[C@H]1CCCC[C@H]2CC[C@@H](C(=O)NCc3cccc(NC(=O)C4COC(=O)C4)c3)N2C1=O (stereo partly shown) [VII-45]	1000 to 10000 nM	–
CN[C@@H](C)C(=O)N[C@H]1CCCC[C@H]2CC[C@@H](C(=O)NCc3cccc(C(C(C)=O)C(C)=O)c3)N2C1=O [VII-8]	100 to 1000 nM	–
CN[C@@H](C)C(=O)N[C@H]1CCCC[C@H]2CC[C@@H](C(=O)NCc3cccc(NC(=O)C=C(C)C)c3)N2C1=O [VII-12]	10 to 100 nM	–
C=CC(=O)N(C)Cc1cc2nc(-c3cccc(O)c3)nc(N3CCOCC3)c2s1 [XXII-5, N-((2-(3-hydroxyphenyl)-4-morpholinothieno[3,2-d]pyrimidin-6-yl)methyl)-N-methylacrylamide]	–	IC50 (p120γ (PI3Kγ); PI3Kγ, read-out: PI3Kγ HTRF IC50 Inhibition Designation): 100 to 1000 nM
C=C(C)C(=O)Nc1cccc(CNC(=O)[C@@H]2CC[C@@H]3CCCC[C@H](NC(=O)[C@H](C)NC)C(=O)N32)c1 [VII-11]	100 to 1000 nM	–
CC(=O)C(C(C)=O)c1cccc(CNC(=O)[C@@H]2CC[C@@H]3CCCC[C@H](NC(=O)[C@H](C)N(C)C(=O)OC(C)(C)C)C(=O)N32)c1 [VII-7, tert-butyl(S)-1-((3S,6S,10aS)-3-(3-(2,4-dioxopentan-3-yl)benzylcarbamoyl)-5-oxodecahydropyrrolo[1,2-a]azocin-6-ylamino)-1-oxopropan-2-yl(methyl)carbamate]	> 10000 nM	–
CN[C@@H](C)C(=O)N[C@H]1CCCC[C@H]2CC[C@@H](C(=O)NCc3cccc(NC(=O)C45CC[C@@](C)(C(=O)O4)C5(C)C)c3)N2C1=O [VII-24]	100 to 1000 nM	–
CN[C@@H](C)C(=O)N[C@H]1CCCC[C@H]2CC[C@@H](C(=O)NCc3cccc(NC(=O)C45CC[C@](C)(C(=O)O4)C5(C)C)c3)N2C1=O [VII-26]	100 to 1000 nM	–
CN[C@@H](C)C(=O)N[C@H]1CCCC[C@H]2CC[C@@H](C(=O)NCc3cccc(Nc4c(OC(C)C)c(=O)c4=O)c3)N2C1=O [VII-5]	100 to 1000 nM	–
CN[C@@H](C)C(=O)N[C@H]1CCCC[C@H]2CC[C@@H](C(=O)NCc3cccc(NC(=O)/C=C/CN(C)C)c3)N2C1=O [VII-10]	100 to 1000 nM	–
CN[C@@H](C)C(=O)N[C@H]1CCCC[C@H]2CC[C@@H](C(=O)NCc3cccc(NC(=O)CC(C)=O)c3)N2C1=O [VII-6]	10 to 100 nM	–
CN[C@@H](C)C(=O)N[C@H]1CCCC[C@H]2CC[C@@H](C(=O)NCc3cccc(NC(=O)CC(=O)C(F)(F)F)c3)N2C1=O [VII-9]	100 to 1000 nM	–

The next lines start with results.

Ki (recombinant human cIAP-1)	Compound	further results
100 to 1000 nM	CN[C@@H](C)C(=O)N[C@H]1CCCC[C@H]2CC[C@@H](C(=O)NCc3cccc(C(=O)OC4CCOC4=O)c3)N2C1=O (stereo partly shown) [VII-15]	–
100 to 1000 nM	CN[C@@H](C)C(=O)N[C@H]1CCCC[C@H]2CC[C@@H](C(=O)NCc3cccc(CNC(=O)[C@@H]4CCC(=O)O4)c3)N2C1=O [VII-32]	–
100 to 1000 nM	CN[C@@H](C)C(=O)N[C@H]1CCCC[C@H]2CC[C@@H](C(=O)NCc3cccc(NC(=O)[C@@H]4CCC(=O)O4)c3)N2C1=O [VII-3]	–
1000 to 10000 nM	CN[C@@H](C)C(=O)N[C@H]1CCCC[C@H]2CC[C@@H](C(=O)NCc3cccc(CNC(=O)[C@H]4CCC(=O)O4)c3)N2C1=O [VII-33]	–
1000 to 10000 nM	CN[C@@H](C)C(=O)N[C@H]1CCCC[C@H]2CC[C@@H](C(=O)NCc3cccc(C(=O)N4CCC5C[C@H]4C(=O)O5)c3)N2C1=O [VII-47]	–
100 to 1000 nM	CN[C@@H](C)C(=O)N[C@H]1CCCC[C@H]2CC[C@@H](C(=O)NCc3cccc(NC(=O)C4CCCC(=O)O4)c3)N2C1=O (stereo partly shown) [VII-46]	–
100 to 1000 nM	CN[C@@H](C)C(=O)N[C@H]1CCCC[C@H]2CC[C@@H](C(=O)NCc3cccc(NC(=O)C4CCOC4=O)c3)N2C1=O (stereo partly shown) [VII-44]	–
100 to 1000 nM	CN[C@@H](C)C(=O)N[C@H]1CCCC[C@H]2CC[C@@H](C(=O)NCc3cccc(C(=O)N4C[C@@H]5C[C@H]4C(=O)O5)c3)N2C1=O [VII-20, (3S,6S,10aS)-6-((S)-2-(methylamino)propanamido)-5-oxo-N-(3-((1S,4S)-3-oxo-2-oxa-5-azabicyclo[2.2.1]heptane-5-carbonyl)benzyl)decahydropyrrolo[1,2-a]azocine-3-carboxamide]	–
100 to 1000 nM	CN[C@@H](C)C(=O)N[C@H]1CCCC[C@H]2CC[C@@H](C(=O)NCc3cccc(C(=O)N4C[C@H]5C[C@@H]4C(=O)O5)c3)N2C1=O [VII-25]	–
100 to 1000 nM	CN[C@@H](C)C(=O)N[C@H]1CCCC[C@H]2CC[C@@H](C(=O)NCc3cccc(C(=O)N[C@@H]4COC(=O)C4)c3)N2C1=O [VII-22]	–
1000 to 10000 nM	CN[C@@H](C)C(=O)N[C@H]1CCCC[C@H]2CC[C@@H](C(=O)NCc3cccc(C(=O)OC4C(=O)OCC4(C)C)c3)N2C1=O (stereo partly shown) [VII-14]	–
100 to 1000 nM	CN[C@@H](C)C(=O)N[C@H]1CCCC[C@H]2CC[C@@H](C(=O)NCc3cccc(NC(=O)[C@H]4CCC(=O)N4)c3)N2C1=O [VII-39]	–
1000 to 10000 nM	CN[C@@H](C)C(=O)N[C@H]1CCCC[C@H]2CC[C@@H](C(=O)NCc3cccc(NC(=O)[C@@H]4CCC(=O)N4)c3)N2C1=O [VII-38]	–
100 to 1000 nM	CN[C@@H](C)C(=O)N[C@H]1CCCC[C@H]2CC[C@@H](C(=O)NCc3cccc(C(=O)N4CCC5CC4C(=O)O5)c3)N2C1=O (stereo partly shown) [VII-48]	–
100 to 1000 nM	CN[C@@H](C)C(=O)N[C@H]1CCCC[C@H]2CC[C@@H](C(=O)NCc3cccc(C(=O)NC[C@@H]4CCC(=O)O4)c3)N2C1=O [VII-42]	–
100 to 1000 nM	CN[C@@H](C)C(=O)N[C@H]1CCCC[C@H]2CC[C@@H](C(=O)NCc3cccc(C(=O)NC[C@H]4CCC(=O)O4)c3)N2C1=O [VII-41]	–
100 to 1000 nM	CN[C@@H](C)C(=O)N[C@H]1CCCC[C@H]2CC[C@@H](C(=O)NCc3cccc(OC4CCOC4=O)c3)N2C1=O (stereo partly shown) [VII-17]	–
100 to 1000 nM	CN[C@@H](C)C(=O)N[C@H]1CCCC[C@H]2CC[C@@H](C(=O)NCc3cccc(NC(=O)[C@@H]4CC(=O)N4)c3)N2C1=O [VII-4]	–
100 to 1000 nM	CN[C@@H](C)C(=O)N[C@H]1CCCC[C@H]2CC[C@@H](C(=O)NCc3cccc(C(=O)N[C@H]4CCOC4=O)c3)N2C1=O [VII-13, (3S,6S,10aS)-6-((S)-2-(methylamino)propanamido)-5-oxo-N-(3-((S)-2-oxotetrahydrofuran-3-ylcarbamoyl)benzyl)decahydropyrrolo[1,2-a]azocine-3-carboxamide]	–
100 to 1000 nM	CN[C@@H](C)C(=O)N[C@H]1CCCC[C@H]2CC[C@@H](C(=O)NCc3cccc(C(=O)N4CCOC(=O)C4)c3)N2C1=O [VII-31]	–
100 to 1000 nM	CN[C@@H](C)C(=O)N[C@H]1CCCC[C@H]2CC[C@@H](C(=O)NCc3cccc(C(=O)N[C@@H]4CCOC4=O)c3)N2C1=O [VII-27]	–
